Data published in patent publication US11572590B2, “Methods for evaluating tumor cell spheroids using 3D microfluidic cell culture device” (Dana-Farber Cancer Institute, Inc., priority 2017, dated 2023).
Where two headings read alike, the source gives them in different places.

Columns and labels:
Experiment in all cases: SelectScreen Kinase Profiling, single point inhibition and IC50 for off-target kinases
Format in all cases: biochemical
off-target kinases [1] = target: T1, off-target kinases (Homo sapiens, UniProt Q12866, A708S); conditions: MERTK (cMER) A708S, mutant y, LanthaScreen Binding
T1 sequence (Q12866 21-999 A708S): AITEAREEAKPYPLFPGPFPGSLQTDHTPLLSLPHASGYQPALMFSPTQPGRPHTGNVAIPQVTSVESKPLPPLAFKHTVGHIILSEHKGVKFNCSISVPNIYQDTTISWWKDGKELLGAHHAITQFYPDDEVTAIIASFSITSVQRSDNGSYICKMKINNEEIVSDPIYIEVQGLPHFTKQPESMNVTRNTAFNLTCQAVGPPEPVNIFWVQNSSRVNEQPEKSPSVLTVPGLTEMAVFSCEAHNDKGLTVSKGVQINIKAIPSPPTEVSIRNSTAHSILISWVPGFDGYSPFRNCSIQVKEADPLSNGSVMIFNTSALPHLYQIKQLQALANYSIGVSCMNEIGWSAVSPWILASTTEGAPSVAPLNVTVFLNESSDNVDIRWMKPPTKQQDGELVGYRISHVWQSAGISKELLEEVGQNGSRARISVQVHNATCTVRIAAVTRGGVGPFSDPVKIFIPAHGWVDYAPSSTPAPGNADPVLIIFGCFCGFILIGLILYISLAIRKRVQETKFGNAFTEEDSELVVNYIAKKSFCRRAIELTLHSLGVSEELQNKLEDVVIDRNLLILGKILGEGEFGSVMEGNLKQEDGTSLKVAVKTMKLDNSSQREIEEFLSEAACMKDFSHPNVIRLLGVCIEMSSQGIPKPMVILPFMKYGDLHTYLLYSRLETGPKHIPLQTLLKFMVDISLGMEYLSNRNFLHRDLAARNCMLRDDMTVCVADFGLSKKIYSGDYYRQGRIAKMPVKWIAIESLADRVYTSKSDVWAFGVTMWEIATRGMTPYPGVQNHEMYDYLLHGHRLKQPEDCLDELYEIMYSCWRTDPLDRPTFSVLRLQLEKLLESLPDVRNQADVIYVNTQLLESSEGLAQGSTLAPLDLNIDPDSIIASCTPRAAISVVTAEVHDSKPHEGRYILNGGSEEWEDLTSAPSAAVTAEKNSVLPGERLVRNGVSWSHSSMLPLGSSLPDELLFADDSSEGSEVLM

off-target kinases [2] = target: T2, off-target kinases (Homo sapiens, UniProt P46734); conditions: MAP2K3 (MEK3), LanthaScreen Binding
T2 sequence (P46734 1-347): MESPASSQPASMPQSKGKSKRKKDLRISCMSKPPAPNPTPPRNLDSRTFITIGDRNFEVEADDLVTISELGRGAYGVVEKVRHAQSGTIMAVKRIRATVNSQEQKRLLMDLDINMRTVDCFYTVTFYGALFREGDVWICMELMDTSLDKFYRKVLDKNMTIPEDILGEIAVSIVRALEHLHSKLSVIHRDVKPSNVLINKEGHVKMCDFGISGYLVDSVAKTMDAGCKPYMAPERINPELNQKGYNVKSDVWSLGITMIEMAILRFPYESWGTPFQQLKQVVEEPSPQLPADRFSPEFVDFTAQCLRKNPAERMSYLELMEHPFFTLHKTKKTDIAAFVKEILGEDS

off-target kinases [3] = target: off-target kinases (Homo sapiens, UniProt P29317); conditions: EPHA2, ZLYTE, ATP Km app
Chain of off-target kinases (Homo sapiens, UniProt P29317) (P29317 24-976): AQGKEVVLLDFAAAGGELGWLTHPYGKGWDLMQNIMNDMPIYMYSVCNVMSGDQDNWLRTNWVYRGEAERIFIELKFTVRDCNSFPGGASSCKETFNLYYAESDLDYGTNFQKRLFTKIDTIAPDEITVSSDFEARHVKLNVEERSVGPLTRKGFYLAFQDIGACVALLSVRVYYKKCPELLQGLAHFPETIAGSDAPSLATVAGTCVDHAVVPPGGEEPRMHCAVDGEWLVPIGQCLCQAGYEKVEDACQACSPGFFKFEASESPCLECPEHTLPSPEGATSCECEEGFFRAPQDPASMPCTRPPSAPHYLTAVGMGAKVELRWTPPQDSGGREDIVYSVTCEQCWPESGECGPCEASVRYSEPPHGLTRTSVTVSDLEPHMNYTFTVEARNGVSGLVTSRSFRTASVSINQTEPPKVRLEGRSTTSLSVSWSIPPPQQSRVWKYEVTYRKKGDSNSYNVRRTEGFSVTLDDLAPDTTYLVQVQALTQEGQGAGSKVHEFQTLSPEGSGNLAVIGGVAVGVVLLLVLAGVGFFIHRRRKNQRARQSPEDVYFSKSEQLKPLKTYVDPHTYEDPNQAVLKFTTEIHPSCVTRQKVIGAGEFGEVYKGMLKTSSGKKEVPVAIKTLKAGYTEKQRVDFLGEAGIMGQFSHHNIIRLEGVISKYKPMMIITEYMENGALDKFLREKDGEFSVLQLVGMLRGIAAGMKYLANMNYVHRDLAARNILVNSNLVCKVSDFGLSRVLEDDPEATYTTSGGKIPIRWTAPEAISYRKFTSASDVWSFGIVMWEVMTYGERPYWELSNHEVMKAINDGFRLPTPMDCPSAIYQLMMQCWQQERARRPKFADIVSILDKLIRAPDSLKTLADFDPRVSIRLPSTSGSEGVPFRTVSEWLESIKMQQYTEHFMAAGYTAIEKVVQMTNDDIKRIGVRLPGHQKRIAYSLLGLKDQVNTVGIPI

off-target kinases [4] = target: off-target kinases (Homo sapiens, UniProt Q16288); conditions: NTRK3 (TRKC), ZLYTE, ATP Km app
Chain of off-target kinases (Homo sapiens, UniProt Q16288) (Q16288 32-839): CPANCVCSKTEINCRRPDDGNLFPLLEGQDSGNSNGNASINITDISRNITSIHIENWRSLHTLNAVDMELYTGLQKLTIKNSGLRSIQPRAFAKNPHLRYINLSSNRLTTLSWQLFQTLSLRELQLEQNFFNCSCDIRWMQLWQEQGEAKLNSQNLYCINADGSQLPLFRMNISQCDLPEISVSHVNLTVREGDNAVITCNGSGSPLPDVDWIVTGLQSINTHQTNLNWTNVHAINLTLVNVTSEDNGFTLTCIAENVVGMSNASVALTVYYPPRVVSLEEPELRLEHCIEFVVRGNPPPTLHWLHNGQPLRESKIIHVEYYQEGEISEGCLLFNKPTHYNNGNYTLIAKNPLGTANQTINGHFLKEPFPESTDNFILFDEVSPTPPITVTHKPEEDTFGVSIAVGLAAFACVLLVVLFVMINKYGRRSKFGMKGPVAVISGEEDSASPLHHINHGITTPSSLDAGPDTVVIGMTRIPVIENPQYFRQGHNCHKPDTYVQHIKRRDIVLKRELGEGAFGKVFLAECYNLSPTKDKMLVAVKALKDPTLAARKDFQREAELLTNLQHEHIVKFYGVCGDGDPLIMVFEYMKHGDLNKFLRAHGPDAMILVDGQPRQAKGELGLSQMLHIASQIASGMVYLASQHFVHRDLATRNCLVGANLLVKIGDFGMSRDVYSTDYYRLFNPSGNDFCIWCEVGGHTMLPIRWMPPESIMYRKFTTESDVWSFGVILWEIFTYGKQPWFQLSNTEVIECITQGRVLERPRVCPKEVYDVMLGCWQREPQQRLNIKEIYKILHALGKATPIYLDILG

off-target kinases [5] = target: off-target kinases (Homo sapiens, UniProt Q02750, S218D/S222D); conditions: MAP2K1 (MEK1) S218D S222D (mutant), LanthaScreen Binding
Chain of off-target kinases (Homo sapiens, UniProt Q02750, S218D/S222D) (Q02750 whole entry S218D/S222D): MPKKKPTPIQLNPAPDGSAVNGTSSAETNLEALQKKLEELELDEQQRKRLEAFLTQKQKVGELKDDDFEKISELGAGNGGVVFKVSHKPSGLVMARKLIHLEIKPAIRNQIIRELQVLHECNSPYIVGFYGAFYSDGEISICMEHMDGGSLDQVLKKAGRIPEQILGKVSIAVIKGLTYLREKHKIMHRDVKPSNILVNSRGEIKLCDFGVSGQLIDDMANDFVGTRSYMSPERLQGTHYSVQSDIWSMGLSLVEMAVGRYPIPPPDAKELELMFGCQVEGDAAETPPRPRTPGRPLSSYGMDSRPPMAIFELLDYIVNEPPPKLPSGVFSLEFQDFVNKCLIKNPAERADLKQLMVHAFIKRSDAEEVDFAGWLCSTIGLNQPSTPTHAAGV

Structure (SMILES): N#Cc1cc(-c2ncnc(Nc3ccc(N4CCN(C5COC5)CC4)cc3)n2)ccc1OC1CCOCC1 [Compound 1, 5-(4-((4-(4-(oxetan-3-yl)piperazin-1-yl)phenyl)amino)-1,3,5-triazin-2-yl)-2-((tetrahydro-2H-pyran-4-yl)oxy)benzonitrile]
- inhibition (off-target kinases [1]; read-out: % Inhibition 1): 24%
- inhibition (off-target kinases [1]; read-out: % Inhibition 2): 27%
- inhibition (off-target kinases [1]; read-out: % Inhibition Avg): 26%
- inhibition (off-target kinases [2]; read-out: % Inhibition 1): 5%
- inhibition (off-target kinases [2]; read-out: % Inhibition 2): 8%
- inhibition (off-target kinases [2]; read-out: % Inhibition Avg): 7%
- inhibition (off-target kinases [3]; read-out: % Inhibition 1): 1%
- inhibition (off-target kinases [3]; read-out: % Inhibition 2): 12%
- inhibition (off-target kinases [3]; read-out: % Inhibition Avg): 6%
- inhibition (off-target kinases [4]; read-out: % Inhibition 1): 17%
- inhibition (off-target kinases [4]; read-out: % Inhibition 2): 19%
- inhibition (off-target kinases [4]; read-out: % Inhibition Avg): 18%
- inhibition (off-target kinases [5]; read-out: % Inhibition 1): 10%
- inhibition (off-target kinases [5]; read-out: % Inhibition 2): 7%
- inhibition (off-target kinases [5]; read-out: % Inhibition Avg): 8%
